From patent publication EP0034120A1, “Derivatives of phenoxy-phenoxy-carboxylic acids” (CIBA-GEIGY AG, priority 1980, dated 1981)

Columns and labels:
Type in all cases: in vivo
Set-up in all cases: key: 1 Pflanze abgestorben; 2-4 schwere Schädigung; 3: 2-4 schwere Schädigung; 2-4 schwere Schädigung; 5, 6 mittlere Schäden; 5, 6 mittlere Schäden; 7, 8 leichte Schäden; 7, 8 leichte Schäden; 9 Pflanze gedeiht normal, wie unbehandelte Kontrollpflanze
Rotala indica = test: Selective herbicidal action in rice, post-emergence (flooded trays); settings: applied into paddy water, evaluated after 4 weeks
Procedure: (§1) Reispflänzchen, welche 25 Tage alt sind, wurden im Gewächshaus in grosse rechtackige Eternitschalen vergflanzt. Zwischen die Reiben der Reispfianzon wurden dann Samen der in Reiskulturen vorkommanden Unkräuter Echinochloa crus galli, Cyperus difformis, ? und Rotala gesät. Die Schalen wurden gut bewässert und bei einer Temperatur von ca. 25°C und hoher Luftfeuchtigkeit gehalten. Nach 12 Tagen, wenn die Unkräuter aufgelaufen sind und das 2-3 Blattstadium erreicht haben, wurde die Erde in der Schale mit einer 2,5 cm hohen Schicht Wasser bedeckt. Die Verbindung No. 2 wurde denn als Emulsionskonzentrat mittels einer-Pipette zwischen die Pflanzenreihen appliziert, wobei man das Emulsionskonzentrat so verdünnte und auftrug, dass es einer Applikationsmenge im Feld von 2 und 1 kg Wirkstoff pro Hektar entsprach. Der Versuch wurde nach 4 Wochen ausgewertat.

Echinochloa crus galli = test: as above; settings: applied into paddy water, evaluated after 4 weeks
Procedure: as §1

Cyperus difformis = test: as above; settings: applied into paddy water, evaluated after 4 weeks
Procedure: as §1

Ammania indica = test: as above; settings: applied into paddy water, evaluated after 4 weeks
Procedure: as §1

Reis [1] = test: as above; settings: applied as emulsion concentrate into paddy water, evaluated after 4 weeks
Procedure: as §1

amarantus retrofl. = test: Herbicidal action, pre-emergent application (greenhouse); settings: after 3 weeks
Procedure: (§2) wurde durchfolgende Versuche ermittelt: Herbizide Wirkung bei Applikation der Wirkstoffe vor dem Auflaufen der Pflanzen (pre-emergent) Im Gewächshaus werden Pflanzensamen in Blumentöpfe von ca. 11 cm Durchmesser gesät. […] Die Töpfe werden dann im Gewächshaus unter optimalen Bedingungen für das Pflanzenwachstum, regelmässiges Bewässern, einer Temperatur von 22-25°C und 50-70% relativer Luftfeuchtigkeit gehalten. Der Versuch wird nach 3 Wochen abgebrochen und der Zustand der Pflanzen gemäss dem folgenden EWRC (European Weed Research Councel) Bewertungsschema registriert: • 1 Pflanze abgestorben • 2-4 schwere Schädigung • 5, 6 mittlere Schäden • 7, 8 leichte Schäden • 9 Pflanze gedeiht normal, wie unbehandelte Kontrollpflanze.

chrysanthemum l. = test: as above; settings: after 3 weeks
Procedure: as §2

chenopodium sp. = test: as above; settings: after 3 weeks
Procedure: as §2

abutilon sp = test: as above; settings: after 3 weeks
Procedure: as §2

sinapis alba = test: as above; settings: after 3 weeks
Procedure: as §2

Weizen = test: as above; settings: after 3 weeks
Procedure: as §2

beta vulgaris = test: as above; settings: after 3 weeks
Procedure: as §2

Reis [2] = test: as above; settings: after 3 weeks
Procedure: as §2

viola tricolor = test: as above; settings: after 3 weeks
Procedure: as §2

## CCOC(=O)CCC(C)Oc1cc(Oc2ccc(C(F)(F)F)cc2Cl)ccc1Cl (stereo not shown) [Verbindung No. 2, 4-[3'-(2"-Chlor-4-trifluormethylphenoxy)-6'-chlorphenoxy]-valeriansäure-äthylester]
Rotala indica; 1 kg/ha
  Selektive herbizide Wirkung (rating): 4
Rotala indica; 2 kg/ha
  Selektive herbizide Wirkung (rating): 3
Echinochloa crus galli; 1 kg/ha
  Selektive herbizide Wirkung (rating): 4
Echinochloa crus galli; 2 kg/ha
  Selektive herbizide Wirkung (rating): 3
Cyperus difformis; 1 kg/ha
  Selektive herbizide Wirkung (rating): 5
Cyperus difformis; 2 kg/ha
  Selektive herbizide Wirkung (rating): 3
Ammania indica; 1 kg/ha
  Selektive herbizide Wirkung (rating): 3
Ammania indica; 2 kg/ha
  Selektive herbizide Wirkung (rating): 1
Reis [1]; 1 kg/ha
  Selektive herbizide Wirkung (rating): 7
Reis [1]; 2 kg/ha
  Selektive herbizide Wirkung (rating): 7
Amarantus retrofl.; Aufwandmenge 2 kg/ha
  Zustand der Pflanzen (EWRC Bewertungsschema): 1
Amarantus retrofl.; Aufwandmenge 4 kg/ha
  Zustand der Pflanzen (EWRC Bewertungsschema): 1
Chrysanthemum l.; Aufwandmenge 2 kg/ha
  Zustand der Pflanzen (EWRC Bewertungsschema): 1
Chrysanthemum l.; Aufwandmenge 4 kg/ha
  Zustand der Pflanzen (EWRC Bewertungsschema): 1
Chenopodium sp.; Aufwandmenge 2 kg/ha
  Zustand der Pflanzen (EWRC Bewertungsschema): 2
Chenopodium sp.; Aufwandmenge 4 kg/ha
  Zustand der Pflanzen (EWRC Bewertungsschema): 1
Abutilon sp; Aufwandmenge 2 kg/ha
  Zustand der Pflanzen (EWRC Bewertungsschema): 5
Abutilon sp; Aufwandmenge 4 kg/ha
  Zustand der Pflanzen (EWRC Bewertungsschema): 1
Sinapis alba; Aufwandmenge 2 kg/ha
  Zustand der Pflanzen (EWRC Bewertungsschema): 1
Sinapis alba; Aufwandmenge 4 kg/ha
  Zustand der Pflanzen (EWRC Bewertungsschema): 1
Weizen; Aufwandmenge 2 kg/ha
  Zustand der Pflanzen (EWRC Bewertungsschema): 9
Weizen; Aufwandmenge 4 kg/ha
  Zustand der Pflanzen (EWRC Bewertungsschema): 9
Beta vulgaris; Aufwandmenge 2 kg/ha
  Zustand der Pflanzen (EWRC Bewertungsschema): 3
Beta vulgaris; Aufwandmenge 4 kg/ha
  Zustand der Pflanzen (EWRC Bewertungsschema): 1
Reis [2]; Aufwandmenge 2 kg/ha
  Zustand der Pflanzen (EWRC Bewertungsschema): 9
Reis [2]; Aufwandmenge 4 kg/ha
  Zustand der Pflanzen (EWRC Bewertungsschema): 9
Viola tricolor; Aufwandmenge 2 kg/ha
  Zustand der Pflanzen (EWRC Bewertungsschema): 2
Viola tricolor; Aufwandmenge 4 kg/ha
  Zustand der Pflanzen (EWRC Bewertungsschema): 1
